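A five-concentration, 48-hour dose response in 96-well plates underlies each endpoint, interpolated linearly between surrounding concentrations. GI50 = concentration required for 50% inhibition of growth. Definition used: TGI = concentration required for complete inhibition of growth.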 Where a SMILES comes first, the peptide text is derived from it.

What all share (assay): inhibition of tumour cell growth, NCI panel, 48 h
In assay [1] the test system is SW-620 colon.
The test system of assay [2] is TK-10 renal.
The subject of assay [3] is ACHN renal.
Assay [4] relates to OVCAR-8 ovarian.
Assay [5] deals with A549 NSCLC.
In assay [6] the test system is SF-295 CNS.
Assay [7] concerns HS 578T breast.
Assay [8] has as its system HOP-92 NSCLC.
The test system of assay [9] is COLO 205 colon.
The test system of assay [10] is MALME-3M melanoma.
For assay [11], the system named is OVCAR-5 ovarian.
Assay [12] concerns HCT-15 colon.
Assay [13] relates to U251 CNS.
Assay [14] deals with SF-539 CNS.
Assay [15] relates to OVCAR-3 ovarian.
Assay [16] relates to T-47D breast.

Take `Cc1cc2nc3n[nH]c(N)c3nc2cc1C`: the TGI in assay [1], in [2], in assay [3], in [4], in assay [5] and in assay [6] was above 100 µM in each case. Besides, the TGI in [7], in [8], in [9], in assay [10], in assay [11] and in [12] was above 100 µM throughout. For the same compound, the TGI in [13] was above 100 µM.
Consider `O=C(OCCN=C1c2ccccc2CCc2ccccc21)c1cc([N+](=O)[O-])cc([N+](=O)[O-])c1`, for which the TGI in assay [1], in [2], in assay [3], in assay [4], in assay [5] and in assay [6] was above 31.6 µM each time. In addition, the TGI in assay [7], in [8], in assay [14], in assay [9], in assay [10] and in [11] was above 31.6 µM in each case. The values for the TGI in assay [15], in assay [12] and in assay [13] were above 31.6 µM, above 31.6 µM and above 100 µM, respectively.
In the case of `CC1NC(=O)CNC(=O)CNC(=O)C(Cc2ccc(O)cc2)NC(=O)C(C(C)C)NC(=O)C(C)NC1=O` (stereo not drawn) (cyclo(GGAAVY); configuration not given here), the TGI in [1], in assay [4], in assay [5], in assay [6], in assay [8] and in assay [14] was above 100 µM throughout. Moreover, the TGI in assay [9], in [10], in [11], in assay [15], in assay [12] and in [13] was above 100 µM in each case. In addition, the GI50 in assay [8] and in assay [10] was above 100 µM in each case.
Regarding `CC(=O)ON(OC(C)=O)c1ccc(C)cc1`, the TGI in assay [1], in [2], in [3], in [4], in assay [5] and in [6] was above 100 µM in each case. Also, the TGI in [7], in assay [8], in [9], in [10], in assay [11] and in [15] was above 100 µM throughout. Besides, the TGI in assay [12] and in [13] was above 100 µM each time.
For `NC(N)=NCCCC(N=c1c2ccccc2n(O)c2ccccc12)C(=O)O` (stereo not drawn), the TGI in assay [1], in assay [2], in assay [3], in [4], in assay [5] and in assay [6] was above 100 µM each time. For the same compound, the TGI in [9], in assay [10], in assay [11], in [15], in assay [12] and in assay [13] was above 100 µM each time.
With `Cc1cc(-c2ccc(C(=O)O)[nH]2)on1`, the TGI in [1], in assay [2], in assay [3], in assay [4], in assay [5] and in assay [6] was above 100 µM throughout. For the same compound, the TGI in assay [7], in assay [8], in assay [9], in [10], in assay [11] and in [15] was above 100 µM throughout. Besides, the TGI in assay [12] and in assay [13] was above 100 µM each time.
For the compound `CSc1ccc2c(cc1=O)[C@@H](NC(C)=O)CCc1cc(O)c(O)c(O)c1-2`, the TGI in assay [1] is above 100 µM; in assay [2] it was 34.6 µM; in assay [3], 46.8 µM; in [4], 42.3 µM; in assay [5] it was 45 µM; in assay [6], 31.2 µM. The TGI in [8] was 70.6 µM; in assay [16], above 100 µM; in assay [9], above 100 µM; in assay [10], above 100 µM; in [11], 35.9 µM; in [15], 34.2 µM. The figures for the TGI in assay [12] and in assay [13] were 34.2 µM and 45.3 µM, respectively.
Consider `CC1=C2C(O)C(C(C)C(=O)NCC(C)C)CCC2(C)C=CC1=O` (stereo not drawn), for which the TGI in [1], in [4], in assay [5], in assay [6], in assay [8] and in assay [14] was above 100 µM throughout. Further, the TGI in [9], in assay [11], in [15], in assay [12] and in [13] was above 100 µM in each case.
In the case of `CCN(CC)CCn1c(C(C)(C)C)nc2ccccc21`, the TGI in [1], in assay [2], in [3], in assay [4], in assay [5] and in assay [6] was above 100 µM in each case. Further, the TGI in assay [8], in [14], in assay [9], in assay [10], in assay [11] and in assay [15] was above 100 µM throughout. The TGI in [12] and in assay [13] was above 100 µM throughout.
Take `C=C1C(=O)O[C@@H]2[C@H]3O[C@]3(C)CCC=C(C)CC[C@@H]12`: the TGI in assay [1] was 34.5 µM; in assay [4] it was 43.9 µM; in [5], 202 µM; in assay [6], 83.2 µM; in assay [8], 26.5 µM; in assay [14], 44.6 µM. The TGI was 31.7 µM in assay [9]; 25.3 µM in assay [10]; 63.6 µM in assay [11]; 40.7 µM in assay [15]; 35.3 µM in assay [12]; 88.6 µM in assay [13].
